Tests used:
[1] = system: ZIKV (Paraiba_01); experiment: Anti-ZIKV activity in human neural cells, pretreatment assay, HBCA cells; assay type: cell-based, Zika virus; conditions: 48 h
[2] = system: HCV genotype 1b replicon; set-up: method as in PMID 25534735; conditions: HCV subgenomic replicon; cited from earlier work
[3] = system: TBEV (Hypr); experiment: microbe, parasite or virus in culture; assay type: cell-based, tick-borne encephalitis virus; conditions: for EC50: Tick-borne encephalitis virus, Vero
[4] = Cytotoxicity assay (Cell Counting Kit-8); assay type: cell-based, Human; conditions: human, 72 h treatment, 0-100 µM
Description: (§1) For detailed cytotoxicity studies, Vero, HBCA, and UKF-NB-4 cells were seeded onto 96-well plates at a density of 10,000 cells per well and incubated for 24 h at 37 °C before being used in the experiment to form a confluent monolayer. After the incubation, tested compounds were added to the cells at concentrations of 0, 3.125, 6.25, 12.5, 25, 50, 75, and 100 µM, and treated under the same regime as during antiviral testing; i.e., pretreatment for 24 h with culture medium containing appropriate drug concentrations, then the medium was exchanged with fresh compound-containing medium. […] The 50% cytotoxic concentration (CC50) values, representing the concentration of compound that reduced cell viability by 50%, were calculated using GraphPad Prism (version 7.04, GraphPad Software, San Diego, CA, USA) as a nonlinear regression (inhibitor vs. normalized response, variable slope).

[5] = system: HBCA cells; experiment: Cytotoxicity assay (Cell Counting Kit-8); assay type: cell-based, Human
Description: as §1

[6] = system: UKF-NB-4 cells; experiment: Cytotoxicity assay (Cell Counting Kit-8); assay type: cell-based, Human
Description: as §1

[7] = system: ZIKV (MR-766); experiment: microbe, parasite or virus in culture; assay type: cell-based, Zika virus; conditions: Vero cells; for EC50: Zika virus, pretreatment 24 h, 48 h incubation, plaque assay
[8] = Cytotoxicity assay (Cell Counting Kit-8); assay type: cell-based; conditions: African green monkey; Vero cells, 72 h treatment, 0-100 µM
Description: as §1

[9] = system: ZIKV (strain MR-766); experiment: Inhibition of ZIKV-mediated cytopathic effect in a simultaneous treatment assay, Vero cells; conditions: 50 µM, 48 h
[10] = system: ZIKV (Paraiba_01); experiment: Anti-ZIKV activity in human neural cells, pretreatment assay, UKF-NB-4 cells; assay type: cell-based, Zika virus; conditions: 48 h
[11] = system: HCV genotype 1a replicon; set-up: method as in PMID 25534735; conditions: HCV subgenomic replicon; cited from earlier work
[12] = system: ZIKV (Paraiba_01); experiment: microbe, parasite or virus in culture; assay type: cell-based, Zika virus; conditions: Vero cells; for EC50: Zika virus, pretreatment 24 h, 48 h incubation, plaque assay
[13] = system: flaviviral surface E antigen (all VBFs tested); experiment: Immunofluorescence staining of viral antigen in infected Vero cells; assay type: cell-based; conditions: 48 h p.i., 0, 40, 50 µM dasabuvir or efavirenz, 0, 75, 100 µM tipranavir
Description: The results obtained from antiviral assays were confirmed using a cell-based flavivirus immunostaining assay with a mouse monoclonal antibody that specifically recognizes the flavivirus group surface antigen, as described previously. Briefly, Vero cells seeded onto 96-well plates were treated with the test compound (0, 40, or 50 μM dasabuvir or efavirenz; 0, 75, or 100 μM tipranavir) and infected with the individual viruses at a multiplicity of infection of 0.1. After incubation at 37 °C for 48 h, the cell monolayers were fixed with cold acetone-methanol (1:1), blocked with 10% fetal bovine serum, and incubated with the flavivirus antibody (1:250; Sigma-Aldrich, Prague, Czech Republic). After washing, the cells were labeled with an anti-mouse goat secondary antibody conjugated with fluorescein isothiocyanate (FITC; 1:500) and counterstained with DAPI (4′,6-diamidino-2-phenylindole; 1 μg/mL) to allow visualization of the cell nuclei. The fluorescence signal was recorded with an Olympus IX71 epifluorescence microscope and processed by ImageJ software.

[14] = system: WNV (Eg101); experiment: microbe, parasite or virus in culture; assay type: cell-based, West Nile virus; conditions: Vero cells; for EC50: pretreatment 24 h, 48 h incubation, plaque assay
[15] = system: ZIKV (strain MR-766); experiment: Anti-ZIKV activity in a simultaneous treatment assay, plaque assay, Vero cells; assay type: cell-based, Zika virus; conditions: 50 µM, 48 h
[16] = system: WNV (13-104); experiment: microbe, parasite or virus in culture; assay type: cell-based, West Nile virus; conditions: Vero cells; for EC50: West Nile virus, pretreatment 24 h, 48 h incubation, plaque assay
[17] = system: ZIKV (strain MR-766); experiment: Anti-ZIKV activity in a post-treatment assay, plaque assay, Vero cells; assay type: cell-based, Zika virus; conditions: 50 µM, 48 h
[18] = system: HIV; set-up: method as in PMID 21041916, PMID 18158073; conditions: H9 cells; read-out: EC90 (anti-HIV activity); cited from earlier work

SMILES | Selectivity Index (SI) (CC50/EC50) [3] | EC50 [3] [µM] | CC50 at 72 h ([4]; HBCA cells) [µM] | CC50 at 72 h ([4]; UKF-NB-4 cells) [µM] | highest non-toxic (>90% viability of the treated cells) concentration [5] [µM] | highest non-toxic (>90% viability of the treated cells) concentration [6] [µM] | Selectivity Index (SI) (CC50/EC50) [7] | EC50 [7] [µM] | CC50 at 72 h [8] [µM] | viability of the infected cells compared to uninfected controls (inhibition of ZIKV-mediated CPE) [9] [%] | Selectivity Index (SI) (CC50/EC50) [12] | EC50 [12] [µM] | surface E antigen expression by all VBFs tested [13] | Selectivity Index (SI) (CC50/EC50) [14] | EC50 ([14]; West Nile virus, Vero) [µM] | effect on ZIKV titer in the culture [15] | Selectivity Index (SI) (CC50/EC50) [16] | EC50 [16] [µM] | anti-ZIKV effect, drug applied 2 h post-infection [17] | other results
COc1c(-c2ccc3cc(NS(C)(=O)=O)ccc3c2)cc(-n2ccc(=O)[nH]c2=O)cc1C(C)(C)C [Dasabuvir, dasabuvir] | 6.67 | 15.2 | 26 | 21.3 | 12.5 | 6.25 | 6.54 | 15.5 | 102 | > 90 | 6.29 | 16.1 | dose-dependent inhibition | 5.60 | 18.8 | reduced ZIKV titer | 6.48 | 15.7 | even stronger compared to 7-deaza-2′-C-methyladenosine | effect on ZIKV replication in the cell culture ([1]; 12.5 µM): completely suppressed ZIKV replication; EC50 [2]: 0.0018 µM; virus titer reduction in comparison with mock-treated control cells ([10]; highest concentration of the drug): approximately 1 log10 pfu/mL; EC50 [11]: 0.0077 µM; EC50 [14]: 18.1 µM
O=C1Nc2ccc(Cl)cc2[C@@](C#CC2CC2)(C(F)(F)F)O1 [Efavirenz, efavirenz] | 4.63 | 15.9 | 16.7 | 31.9 | 3.125 | 12.5 | 2.41 | 30.4 | 73.6 | > 90 | 2.85 | 25.8 | dose-dependent inhibition | 3.35 | 21.9 | reduced ZIKV titer | 4.50 | 16.3 | antiviral effect | antiviral effect against ZIKV ([1]; any concentration tested): No antiviral effect; antiviral effect against ZIKV ([10]; any concentration tested): No antiviral effect
CCC[C@@]1(CCc2ccccc2)CC(O)=C([C@H](CC)c2cccc(NS(=O)(=O)c3ccc(C(F)(F)F)cn3)c2)C(=O)O1 [Tipranavir, tipranavir] | 3.79 | 35.5 | 34 | 89.2 | 12.5 | 50 | 4.45 | 30.3 | > 100 | > 90 | – | 29.9 | dose-dependent inhibition | 4.12 | 32.7 | reduced ZIKV titer | 5.58 | 24.2 | even stronger compared to 7-deaza-2′-C-methyladenosine | reduction of ZIKV replication in the HBCA culture ([1]; 12.5 µM): approx. 10^3 fold; antiviral effect against ZIKV (virus titer reduction) ([10]; 50 µM): approx. 10^3 fold; EC90 [18]: 0.1 µM
C[C@@H]1CCO[C@H]2Cn3cc(C(=O)NCc4ccc(F)cc4F)c(=O)c(O)c3C(=O)N12 [dolutegravir] | – | – | – | – | – | – | – | – | – | > 90 | – | – | – | – | – | – | – | – | – | –
